Results: PubChem BioAssay (NCI)
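Results reflect a 48-hour exposure of cells in 96-well plates to compound at five concentrations. GI50 is the concentration that inhibits growth by half. The concentration for full growth arrest is given as TGI.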 Where a SMILES comes first, the peptide text is derived from it. [ ]: non-standard residue; d: D form. ξ: configuration not given here. ξLac(3-iPr) = CC(C)CC(O)C(=O)O; NMeV = CN[CH](C(=O)O)C(C)C; NMeA = CN[CH](C)C(=O)O; βAla = NCCC(=O)O

Assays:
Test in all cases: NCI-60 cell line screen, 48 h
[1] = tested on: BT-549 breast
[2] = tested on: HCC-2998 colon
[3] = tested on: HS 578T breast
[4] = tested on: MCF7 breast
[5] = tested on: OVCAR-4 ovarian
[6] = tested on: SF-539 CNS
[7] = tested on: DLD-1 colon
[8] = tested on: DMS 114 small cell lung
[9] = tested on: DMS 273 small cell lung
[10] = tested on: HL-60(TB) leukemia
[11] = tested on: HOP-18 NSCLC
[12] = tested on: KM20L2 colon
[13] = tested on: LXFL 529 NSCLC
[14] = tested on: SR leukemia
[15] = tested on: HOP-92 NSCLC
[16] = tested on: M19-MEL melanoma

`O=C(c1ccccc1)C1C(c2ccccc2)N1S(=O)(=O)c1ccccc1` (configuration not stated) gave a TGI [1] greater than 100 µM, a TGI [2] greater than 100 µM and a TGI [3] greater than 100 µM. The TGI [4] was greater than 100 µM, the TGI [5] was greater than 100 µM and the TGI [6] was greater than 100 µM.
`Cc1ccc2c(ccc(/C=C\c3cc(C)c4cccnc4c3O)[n+]2C)c1` gave a TGI [7] of 4.36 µM, a TGI [8] of 7.54 µM and a TGI [9] of 21.4 µM. It also gave a TGI [2] of 11.6 µM, a TGI [10] of 19.7 µM and a TGI [11] of 9.28 µM. The TGI [12] was 33.3 µM, the TGI [13] was 18.9 µM and the TGI [5] was 39 µM. For the same compound, the TGI [6] was 25.1 µM and the TGI [14] was 25.4 µM.
Work on `COc1cc(C(=O)CC2OC(=O)C(Cl)=C2Cl)ccc1Cl` (configuration not stated) yielded a TGI [7] greater than 100 µM, a TGI [8] greater than 100 µM and a TGI [9] greater than 100 µM. It also gave a TGI [2] greater than 100 µM, a TGI [10] greater than 100 µM and a TGI [11] greater than 100 µM. It also gave a TGI [15] greater than 100 µM, a TGI [12] greater than 100 µM and a TGI [13] greater than 100 µM. For the same compound, the TGI [16] was greater than 100 µM, the TGI [5] was greater than 100 µM and the TGI [6] was greater than 100 µM. It also gave a TGI [14] greater than 100 µM.
For `C[N+](C)(C)c1cc2c(nn1)Nc1ccccc1S2`, the TGI [1] was greater than 100 µM, the TGI [2] was 71.5 µM and the TGI [10] was 74 µM. For the same compound, the TGI [15] was 48.5 µM, the TGI [3] was greater than 100 µM and the TGI [4] was greater than 100 µM. The TGI [5] was 70.1 µM.
`C[C@]12CC[C@@H]3c4ccc(O)cc4CC[C@H]3[C@@H]1CC[C@@H]2OC(=O)CCc1ccccc1` gave a TGI [1] of 34.2 µM, a TGI [2] of 36.6 µM and a TGI [10] of 43.9 µM. The TGI [15] was 36.8 µM, the TGI [3] was 17.9 µM and the TGI [4] was 37.7 µM. It also gave a TGI [5] of 39.1 µM.
`CC1(C)N=C(N)N=C(N)N1c1cccc(C(=O)Nc2ccc(S(=O)(=O)F)cc2)c1` gave a TGI [1] greater than 100 µM, a TGI [10] greater than 100 µM and a TGI [15] greater than 100 µM. The TGI [3] was greater than 100 µM, the TGI [4] was greater than 100 µM and the TGI [5] was greater than 100 µM. For the same compound, the TGI [6] was greater than 100 µM.
Work on `Cc1nc2[nH]ncn2c(=O)c1CCCl` yielded a TGI [2] greater than 10 µM, a TGI [10] greater than 10 µM and a TGI [3] greater than 10 µM. It also gave a TGI [4] greater than 10 µM, a TGI [5] greater than 10 µM and a TGI [6] greater than 10 µM. For the same compound, the TGI [14] was greater than 10 µM.
In the case of `CCC(C)C1NC(=O)C2CCCN2C(=O)C(CC(C)C)OC(=O)CCNC(=O)C(C)N(C)C(=O)C(C(C)C)N(C)C1=O` (configuration not stated) (cyclo([ξLac(3-iPr)]PI[NMeV][NMeA][βAla]); configuration not given here), the TGI [1] is reported as greater than 100 µM, the TGI [2] is reported as 14.9 µM and the TGI [10] is reported as 18.2 µM. The TGI [15] was greater than 100 µM, the TGI [3] was greater than 96.3 µM and the TGI [4] was greater than 26.7 µM. It also gave a TGI [5] greater than 100 µM, a TGI [6] greater than 80.3 µM and a TGI [14] greater than 56.5 µM.
Work on `O=C1C=CC(=O)c2c(O)c(Br)c(Br)c(O)c21` yielded a TGI [1] of 27.1 µM, a TGI [2] of 35.2 µM and a TGI [10] of 2.21 µM. For the same compound, the TGI [15] was 4.18 µM, the TGI [3] was 69.1 µM and the TGI [4] was 5.48 µM. The TGI [5] was 9.08 µM, the TGI [6] was 30.5 µM and the TGI [14] was 0.289 µM.
`N#C/C(=C\c1ccc(Br)cc1)n1nnc2cc(Cl)c(Cl)cc21` showed a GI50 [15] of 1.14 µM, a TGI [15] of 3.79 µM and a GI50 [4] of 1.51 µM. It also gave a TGI [4] greater than 100 µM, a GI50 [6] of 2.2 µM and a TGI [6] of 4.86 µM. For the same compound, the GI50 [14] was 1.36 µM and the TGI [14] was greater than 100 µM.
`Clc1ccc(C[P+]2(c3ccccc3)CCCCC2)cc1` gave a TGI [7] greater than 100 µM, a TGI [8] greater than 100 µM and a TGI [9] greater than 100 µM. The TGI [2] was greater than 100 µM, the TGI [10] was 93.9 µM and the TGI [11] was greater than 100 µM. The TGI [12] was greater than 100 µM, the TGI [13] was greater than 100 µM and the TGI [16] was greater than 100 µM. It also gave a TGI [6] greater than 100 µM and a TGI [14] greater than 100 µM.
`O=C1c2ccccc2C(=O)c2c(Nc3cc4c5c(ccc6c7ccc8c9c(cc(Nc%10cccc%11c%10C(=O)c%10ccccc%10C%11=O)c(c3c56)c97)-c3ccccc3C8=O)C(=O)c3ccccc3-4)cccc21` was tested, and the TGI [1] was greater than 100 µM, the TGI [15] was greater than 100 µM and the TGI [3] was 61.1 µM. For the same compound, the TGI [4] was greater than 100 µM, the TGI [5] was greater than 100 µM and the TGI [14] was greater than 100 µM.
With `CCN(CC)c1ccc2nc3ccc(N=Nc4c(O)ccc5ccccc45)cc3[n+](-c3ccccc3)c2c1` the TGI [1] was greater than 100 µM, the TGI [10] was greater than 100 µM and the TGI [15] was greater than 100 µM. It also gave a TGI [3] greater than 100 µM, a TGI [5] greater than 100 µM and a TGI [14] greater than 100 µM.
